{"source": "patent US20260285850A1", "about": "“SUBSTITUTED OXAZOLIDINONES AND IMIDAZOLINONES AS HERBICIDES” (FMC CORPORATION, priority 2023, published 2026)", "type_in_all_cases": "in vivo", "key": {"[1]": {"system": "palmer (palmer amaranth, palmer pigweed, Amaranthus palmeri)", "test": "Test A postemergence application, visual injury rating 0-100", "settings": "10 days", "procedure,_shortened": "(§1)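 Rating: visual, day 10, untreated plants as reference, 0 no effect to 100 full control. Plants were in loam-sand and were treated either preemergence via directed soil spray or postemergence at the one- to two-leaf stage.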"}, "[2]": {"system": "blackgrass (Alopecurus myosuroides)", "test": "Test A postemergence application, visual injury rating 0-100", "settings": "10 days", "procedure,_shortened": "as §1"}, "[3]": {"system": "ryegrass, Italian (italian ryegrass, Lolium multiflorum)", "test": "Test A postemergence application, visual injury rating 0-100", "settings": "10 days", "procedure,_shortened": "as §1"}, "[4]": {"system": "horseweed (Erigeron canadensis)", "test": "Test A postemergence application, visual injury rating 0-100", "settings": "10 days", "procedure,_shortened": "as §1"}, "[5]": {"system": "galium (catchweed bedstraw, Galium aparine)", "test": "Test A postemergence application, visual injury rating 0-100", "settings": "10 days", "procedure,_shortened": "as §1"}, "[6]": {"system": "ragweed (common ragweed, Ambrosia artemisiifolia)", "test": "Test A postemergence application, visual injury rating 0-100", "settings": "10 days", "procedure,_shortened": "as §1"}, "kochia (Bassia scoparia) [7]": {"system": "kochia (Bassia scoparia)", "test": "Test A postemergence application, visual injury rating 0-100", "settings": "10 days", "procedure,_shortened": "as §1"}, "[8]": {"system": "barnyardgrass (Echinochloa crus-galli)", "test": "Test A postemergence application, visual injury rating 0-100", "settings": "10 days", "procedure,_shortened": "as §1"}, "[9]": {"system": "wheat (Triticum aestivum)", "test": "Test A postemergence application, visual injury rating 0-100", "settings": "10 days", "procedure,_shortened": "as §1"}, "corn (Zea mays) [10]": {"system": "corn (Zea mays)", "test": "Test A postemergence application, visual injury rating 0-100", "settings": "10 days", "procedure,_shortened": "as §1"}, "[11]": {"system": "green foxtail (Setaria viridis)", "test": "Test A postemergence application, visual injury rating 0-100", "settings": "10 days", "procedure,_shortened": "as §1"}, "[12]": {"system": "oat, wild (wild oat, Avena fatua)", "test": "Test A postemergence application, visual injury rating 0-100", "settings": "10 days", "procedure,_shortened": "as §1"}, "soybean (Glycine max) [13]": {"system": "soybean (Glycine max)", "test": "Test A postemergence application, visual injury rating 0-100", "settings": "10 days", "procedure,_shortened": "as §1"}, "[14]": {"system": "palmer (palmer amaranth, palmer pigweed, Amaranthus palmeri)", "test": "Test A preemergence soil spray, visual injury rating 0-100", "settings": "10 days, 0 = no effect, 100 = complete control", "procedure,_shortened": "as §1"}, "[15]": {"system": "blackgrass (Alopecurus myosuroides)", "test": "Test A preemergence soil spray, visual injury rating 0-100", "settings": "10 days, 0 = no effect, 100 = complete control", "procedure,_shortened": "as §1"}, "[16]": {"system": "ryegrass, Italian (italian ryegrass, Lolium multiflorum)", "test": "Test A preemergence soil spray, visual injury rating 0-100", "settings": "10 days, 0 = no effect, 100 = complete control", "procedure,_shortened": "as §1"}, "[17]": {"system": "ragweed (common ragweed, Ambrosia artemisiifolia)", "test": "Test A preemergence soil spray, visual injury rating 0-100", "settings": "10 days, 0 = no effect, 100 = complete control", "procedure,_shortened": "as §1"}, "kochia (Bassia scoparia) [18]": {"system": "kochia (Bassia scoparia)", "test": "Test A preemergence soil spray, visual injury rating 0-100", "settings": "10 days, 0 = no effect, 100 = complete control", "procedure,_shortened": "as §1"}, "[19]": {"system": "barnyardgrass (Echinochloa crus-galli)", "test": "Test A preemergence soil spray, visual injury rating 0-100", "settings": "10 days, 0 = no effect, 100 = complete control", "procedure,_shortened": "as §1"}, "[20]": {"system": "wheat (Triticum aestivum)", "test": "Test A preemergence soil spray, visual injury rating 0-100", "settings": "10 days, 0 = no effect, 100 = complete control", "procedure,_shortened": "as §1"}, "corn (Zea mays) [21]": {"system": "corn (Zea mays)", "test": "Test A preemergence soil spray, visual injury rating 0-100", "settings": "10 days, 0 = no effect, 100 = complete control", "procedure,_shortened": "as §1"}, "[22]": {"system": "green foxtail (Setaria viridis)", "test": "Test A preemergence soil spray, visual injury rating 0-100", "settings": "10 days, 0 = no effect, 100 = complete control", "procedure,_shortened": "as §1"}, "[23]": {"system": "oat, wild (wild oat, Avena fatua)", "test": "Test A preemergence soil spray, visual injury rating 0-100", "settings": "10 days, 0 = no effect, 100 = complete control", "procedure,_shortened": "as §1"}, "soybean (Glycine max) [24]": {"system": "soybean (Glycine max)", "test": "Test A preemergence soil spray, visual injury rating 0-100", "settings": "10 days, 0 = no effect, 100 = complete control", "procedure,_shortened": "as §1"}, "rice (Oryza sativa)": {"system": "rice (Oryza sativa)", "test": "Test B flooded paddy test, visual plant response rating 0-100", "settings": "250 g ai/ha, Flood, applied to paddy water, evaluated after 13 days", "procedure,_shortened": "(§2)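 2-leaf plants; flood 3 cm over soil; compound dosed into paddy water; depth kept constant; greenhouse 13 d; visual scoring vs controls. Dash = no result.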"}, "[25]": {"system": "ducksalad (Heteranthera limosa)", "test": "Test B flooded paddy test, visual plant response rating 0-100", "settings": "250 g ai/ha, Flood, applied to paddy water, evaluated after 13 days", "procedure,_shortened": "as §2"}, "[26]": {"system": "sedge, umbrella (small-flower umbrella sedge, Cyperus difformis)", "test": "Test B flooded paddy test, visual plant response rating 0-100", "settings": "250 g ai/ha, Flood, applied to paddy water, evaluated after 13 days", "procedure,_shortened": "as §2"}, "[27]": {"system": "barnyardgrass (Echinochloa crusgalli)", "test": "Test B flooded paddy test, visual plant response rating 0-100", "settings": "250 g ai/ha, Flood, applied to paddy water, evaluated after 13 days", "procedure,_shortened": "as §2"}, "[28]": {"settings": "31 g ai/ha, postemergence, 0 = no effect, 100 = complete control"}, "[29]": {"settings": "Postemergence, 125 g ai/ha, 0 is no effect, 100 is complete control"}}, "data": [{"smiles": "COC(=O)C1=CCC(NC(=O)C2(C)CN(c3cc(F)cc(F)c3)C(=O)O2)C1", "note": "(stereo not shown) [Compound 21]", "values": [{"measurement": "Amaranth, Palmer plant response rating (0-100)", "setting": "[1]; [28]", "value": 60}, {"measurement": "Amaranth, Palmer / Pigweed, Palmer plant response rating (0 to 100 scale)", "setting": "[1]; [29]", "value": 90}, {"measurement": "Blackgrass plant response rating (0-100)", "setting": "[2]; [28]", "value": 90}, {"measurement": "Blackgrass plant response rating (0 to 100 scale)", "setting": "[2]; [29]", "value": 100}, {"measurement": "Ryegrass, Italian plant response rating (0-100)", "setting": "[3]; [28]", "value": 90}, {"measurement": "Ryegrass, Italian plant response rating (0 to 100 scale)", "setting": "[3]; [29]", "value": 40}, {"measurement": "Horseweed plant response rating (0-100)", "setting": "[4]; [28]", "value": 20}, {"measurement": "Horseweed plant response rating (0 to 100 scale)", "setting": "[4]; [29]", "value": 70}, {"measurement": "Galium plant response rating (0-100)", "setting": "[5]; [28]", "value": 80}, {"measurement": "Galium plant response rating (0 to 100 scale)", "setting": "[5]; [29]", "value": 80}, {"measurement": "Ragweed plant response rating (0-100)", "setting": "[6]; [28]", "value": 40}, {"measurement": "Ragweed plant response rating (0 to 100 scale)", "setting": "[6]; [29]", "value": 70}, {"measurement": "Kochia plant response rating (0-100)", "setting": "kochia (Bassia scoparia) [7]; [28]", "value": 80}, {"measurement": "Kochia plant response rating (0 to 100 scale)", "setting": "kochia (Bassia scoparia) [7]; [29]", "value": 80}, {"measurement": "Barnyardgrass plant response rating (0-100)", "setting": "[8]; [28]", "value": 100}, {"measurement": "Barnyardgrass plant response rating (0 to 100 scale)", "setting": "[8]; [29]", "value": 100}, {"measurement": "Wheat plant response rating (0-100)", "setting": "[9]; [28]", "value": 90}, {"measurement": "Wheat plant response rating (0 to 100 scale)", "setting": "[9]; [29]", "value": 90}, {"measurement": "Corn plant response rating (0-100)", "setting": "corn (Zea mays) [10]; [28]", "value": 100}, {"measurement": "Corn plant response rating (0 to 100 scale)", "setting": "corn (Zea mays) [10]; [29]", "value": 100}, {"measurement": "Foxtail, Green plant response rating (0-100)", "setting": "[11]; [28]", "value": 90}, {"measurement": "Foxtail, Green plant response rating (0 to 100 scale)", "setting": "[11]; [29]", "value": 90}, {"measurement": "Oat, Wild plant response rating (0-100)", "setting": "[12]; [28]", "value": 90}, {"measurement": "Oat, Wild plant response rating (0 to 100 scale)", "setting": "[12]; [29]", "value": 100}, {"measurement": "Soybean plant response rating (0-100)", "setting": "soybean (Glycine max) [13]; [28]", "value": 80}, {"measurement": "Soybean plant response rating (0 to 100 scale)", "setting": "soybean (Glycine max) [13]; [29]", "value": 90}, {"measurement": "Amaranth, Palmer plant response rating (0-100)", "setting": "[14]; 31 g ai/ha", "value": 40}, {"measurement": "Amaranth, Palmer plant response rating (0 to 100 scale)", "setting": "[14]; 125 g ai/ha", "value": 100}, {"measurement": "Blackgrass plant response rating (0-100)", "setting": "[15]; 31 g ai/ha", "value": 0}, {"measurement": "Blackgrass plant response rating (0 to 100 scale)", "setting": "[15]; 125 g ai/ha", "value": 90}, {"measurement": "Ryegrass, Italian plant response rating (0-100)", "setting": "[16]; 31 g ai/ha", "value": 50}, {"measurement": "Ryegrass, Italian plant response rating (0 to 100 scale)", "setting": "[16]; 125 g ai/ha", "value": 90}, {"measurement": "Ragweed plant response rating (0-100)", "setting": "[17]; 31 g ai/ha", "value": 30}, {"measurement": "Ragweed plant response rating (0 to 100 scale)", "setting": "[17]; 125 g ai/ha", "value": 30}, {"measurement": "Kochia plant response rating (0-100)", "setting": "kochia (Bassia scoparia) [18]; 31 g ai/ha", "value": 0}, {"measurement": "Kochia plant response rating (0 to 100 scale)", "setting": "kochia (Bassia scoparia) [18]; 125 g ai/ha", "value": 90}, {"measurement": "Barnyardgrass plant response rating (0-100)", "setting": "[19]; 31 g ai/ha", "value": 50}, {"measurement": "Barnyardgrass plant response rating (0 to 100 scale)", "setting": "[19]; 125 g ai/ha", "value": 100}, {"measurement": "Wheat plant response rating (0-100)", "setting": "[20]; 31 g ai/ha", "value": 80}, {"measurement": "Wheat plant response rating (0 to 100 scale)", "setting": "[20]; 125 g ai/ha", "value": 90}, {"measurement": "Corn plant response rating (0-100)", "setting": "corn (Zea mays) [21]; 31 g ai/ha", "value": 60}, {"measurement": "Corn plant response rating (0 to 100 scale)", "setting": "corn (Zea mays) [21]; 125 g ai/ha", "value": 90}, {"measurement": "Foxtail, Green plant response rating (0-100)", "setting": "[22]; 31 g ai/ha", "value": 90}, {"measurement": "Foxtail, Green plant response rating (0 to 100 scale)", "setting": "[22]; 125 g ai/ha", "value": 100}, {"measurement": "Oat, Wild plant response rating (0-100)", "setting": "[23]; 31 g ai/ha", "value": 60}, {"measurement": "Oat, Wild plant response rating (0 to 100 scale)", "setting": "[23]; 125 g ai/ha", "value": 80}, {"measurement": "Soybean plant response rating (0-100)", "setting": "soybean (Glycine max) [24]; 31 g ai/ha", "value": 50}, {"measurement": "Soybean plant response rating (0 to 100 scale)", "setting": "soybean (Glycine max) [24]; 125 g ai/ha", "value": 80}, {"measurement": "Plant response rating, Rice (0 to 100 scale, 0 is no effect and 100 is complete control)", "setting": "rice (Oryza sativa)", "value": 90}, {"measurement": "Plant response rating, Ducksalad (0 to 100 scale, 0 is no effect and 100 is complete control)", "setting": "[25]", "value": 90}, {"measurement": "Plant response rating, Sedge, Umbrella (0 to 100 scale, 0 is no effect and 100 is complete control)", "setting": "[26]", "value": 95}, {"measurement": "Plant response rating, Barnyardgrass (0 to 100 scale, 0 is no effect and 100 is complete control)", "setting": "[27]", "value": 90}]}]}
